Read-outs that look alike come from different tables or passages of the source.
What was measured:
[1] = molecular target: T1, p38 MAPKα isoform (MAPK14) (Homo sapiens, UniProt Q16539); assay: Enzyme inhibition assay (FRET, Z-LYTE), p38 MAPKα via MAPKAP-K2 activation; type: biochemical; details: read-out: Enzyme Inhibition IC50 p38α
T1 construct: purchased Invitrogen
Method in brief: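 Recombinant p38 MAPKα was preincubated with compound for 2 h at RT. Its activity was measured indirectly through activation/phosphorylation of downstream MAPKAP-K2, with a Z-LYTE FRET peptide read-out (coumarin/fluorescein ratio) after a 1 h development step. IC50 came from concentration-response curves of percent inhibition versus an uninhibited control.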

p38 MAPKγ (MAPK12) = molecular target: T2, p38 MAPKγ (MAPK12) (Homo sapiens, UniProt P53778); assay: Enzyme inhibition assay (FRET, Z-LYTE), p38 MAPKγ; type: biochemical; details: read-out: Enzyme Inhibition IC50 p38γ
T2 construct: purchased Invitrogen
T2 sequence (P53778 1-367): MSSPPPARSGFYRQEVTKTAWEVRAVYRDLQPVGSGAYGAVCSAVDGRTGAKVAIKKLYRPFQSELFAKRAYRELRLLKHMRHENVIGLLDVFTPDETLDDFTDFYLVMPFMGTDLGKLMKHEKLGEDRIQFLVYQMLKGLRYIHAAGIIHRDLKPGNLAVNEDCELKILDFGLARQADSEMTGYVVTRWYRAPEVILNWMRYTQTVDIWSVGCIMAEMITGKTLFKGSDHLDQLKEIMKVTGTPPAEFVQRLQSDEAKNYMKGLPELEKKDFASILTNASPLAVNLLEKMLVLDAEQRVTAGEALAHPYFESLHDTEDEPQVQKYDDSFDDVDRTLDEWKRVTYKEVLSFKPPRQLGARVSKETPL
Method in brief: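 Recombinant phosphorylated p38 MAPKγ preincubated 2 h at RT with compound in HEPES buffer, then 2 μM FRET peptide and 100 μM ATP added for 1 h; protease development 1 h. Coumarin/fluorescein emission ratio gave phosphorylation; IC50 from concentration-response versus uninhibited control.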

[2] = tested on: TNFα release in THP-1 cells; assay: LPS-induced TNFα release in THP-1 cells; type: cell-based, human
Method in brief: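 Human monocytic THP-1 cells stimulated with 3 μg/mL E. coli LPS for 4 hr; supernatant TNFα measured by sandwich ELISA. Inhibition at each concentration versus vehicle control, IC50 from concentration-response curve.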

[3] = tested on: TNFα release in d-U937 cells; assay: LPS-induced TNFα release in d-U937 cells; type: cell-based, human
Method in brief: (§1)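 PMA-differentiated (100 ng/ml, 48–72 hr) U937 macrophage-type cells pre-incubated 2 hr with compound, then stimulated 4 hr with 0.1 μg/mL E. coli O111:B4 LPS; supernatant TNFα and IL-8 measured by sandwich ELISA. TNFα inhibition expressed relative to 10 μg/mL BIRB796, giving REC50; IL-8 inhibition versus vehicle, giving IC50.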

[4] = tested on: IL-8 release in d-U937 cells; assay: LPS-induced IL-8 release in d-U937 cells; type: cell-based, human
Method in brief: as §1

[5] = tested on: ICAM-1 induction in BEAS2B cells; assay: Poly I:C-induced ICAM-1 induction in BEAS2B cells; type: cell-based, human; details: read-out: PolyIC/ICAM1 IC50 BEAS2B
Method in brief: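 Human bronchial epithelial BEAS2B cells were pre-incubated with compound for 2 hr, then transfected with 1 μg/mL poly I:C. After 18 hr, surface ICAM-1 was measured by cell-based ELISA (OD450-655) and normalized to crystal violet cell counts (OD595). IC50 came from inhibition versus vehicle across the concentration-response curve.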

[6] = tested on: Differentiated U937 cells; assay: Cell viability MTT assay; type: cell-based, human; details: negative = apparent increase in viability; for MTT Assay (Viability) 4 h d-U937, percentage loss of cell viability: 4 hr in 5% FCS; for MTT Assay (Viability) 24 h d-U937, percentage loss of cell viability: 24 h in 10% FCS
Method in brief: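 Differentiated U937 cells pre-incubated with compound either 4 hr in 5% FCS or 24 h in 10% FCS, then 1 hr MTT. Formazan dissolved in DMSO, absorbance at 550 nm. Percentage viability loss relative to 0.5% DMSO vehicle; apparent increases appear as negative percentages.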

[7] = Homo sapiens, dU937, relative to 10 μg/mL BIRB796, read-out: LPS/TNFα REC50 d-U937

T1 sequence (Q16539 whole entry, canonical isoform): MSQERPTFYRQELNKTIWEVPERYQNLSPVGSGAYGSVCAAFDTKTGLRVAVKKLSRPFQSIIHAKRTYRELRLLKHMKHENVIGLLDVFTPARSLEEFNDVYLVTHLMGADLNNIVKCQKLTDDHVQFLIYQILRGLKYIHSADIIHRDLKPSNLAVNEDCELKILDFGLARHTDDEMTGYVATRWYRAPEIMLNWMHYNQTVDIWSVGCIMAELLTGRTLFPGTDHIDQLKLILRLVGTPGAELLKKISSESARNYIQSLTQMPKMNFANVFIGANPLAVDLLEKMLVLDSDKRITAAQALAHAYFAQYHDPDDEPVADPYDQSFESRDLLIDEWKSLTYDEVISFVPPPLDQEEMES

Row | SMILES | IC50 [1] | IC50 (p38 MAPKγ (MAPK12)) | IC50 ([2]; Homo sapiens) | EC50 [3, 7] | IC50 ([4]; Homo sapiens, dU937) | IC50 ([5]; Homo sapiens, BEAS-2B) | MTT Assay (Viability) 4 h d-U937, percentage loss of cell viability [6] | MTT Assay (Viability) 24 h d-U937, percentage loss of cell viability [6] | IC50 [2] | EC50 ([3]; relative to 10 μg/mL BIRB796, read-out: LPS/TNFα REC50 d-U937) | IC50 [4] | IC50 [5]
1 | COc1ccc(-n2nc(C(C)(C)C)cc2NC(=O)Nc2ccc(Oc3ccnc(NC(=O)NCCCn4ccnc4)c3)c(Cl)c2Cl)cc1 [Example 69, 1-(3-(1H-imidazol-1-yl)propyl)-3-(4-(4-(3-(3-tert-butyl-1-(4-methoxyphenyl)-1H-pyrazol-5-yl)ureido)-2,3-dichlorophenoxy)pyridin-2-yl)urea] | 15.2 nM | 68.3 nM | 1.4 nM | 0.6 nM | 4.2 nM | 22.2 nM | 8.8% | 75.5% | – | – | – | –
2 | CN(C)CCNC(=O)Nc1cc(Oc2ccc(NC(=O)Nc3cc(C(C)(C)C)nn3-c3ccc(CO)cc3)c(Cl)c2Cl)ccn1 [Example 70, 1-(3-tert-butyl-1-(4-hydroxymethylphenyl)-1H-pyrazol-5-yl)-3-(2,3-dichloro-4-(2-(3-(2-(dimethylamino)ethyl)ureido)pyridin-4-yloxy)phenyl)urea] | 3.5 nM | 30.1 nM | 2.4 nM | 1.5 nM | 5.7 nM | 10.1 nM | 6.1% | 94.1% | – | – | – | –
3 | CC(C)(C)c1cc(NC(=O)Nc2ccc(Oc3ccnc(NC(=O)NCCN4CCOCC4)c3)c(Cl)c2Cl)n(-c2ccc(CO)cc2)n1 [Example 71, 1-(4-(4-(3-(3-tert-butyl-1-(4-hydroxymethylphenyl)-1H-pyrazol-5-yl)ureido)-2,3-dichlorophenoxy)pyridin-2-yl)-3-(2-morpholinoethyl) urea] | 19.4 nM | 60.4 nM | 0.7 nM | 1.1 nM | 1.4 nM | 1.9 nM | −20.5% | 84.3% | – | – | – | –
4 | Cc1ccc(-n2nc(C(C)(C)C)cc2NC(=O)Nc2ccc(Oc3ccnc(NC(=O)N4CCCC4)c3)c(Cl)c2Cl)cc1 [Example 72, N-(4-(4-(3-(3-tert-butyl-1-p-tolyl-1H-pyrazol-5-yl)ureido)-2,3-dichlorophenoxy)pyridin-2-yl) pyrrolidine-1-carboxamide] | 41.3 nM | 315 nM | 0.6 nM | 1.9 nM | 0.2 nM | 7.5 nM | −13.7% | 26.9% | – | – | – | –
5 | CNC(=O)Nc1cc(Oc2ccc(NC(=O)Nc3cc(C4(C)CCCCC4)nn3-c3ccc(C)cc3)c(Cl)c2Cl)ccn1 [Example 73, 1-(3-(1-methylcyclohexyl)-1-p-tolyl-1H-pyrazol-5-yl)-3-(2,3-dichloro-4-(2-(3-methylureido)pyridin-4-yloxy)phenyl)urea] | 151 nM | 243 nM | 12.8 nM | 1.7 nM | 1.9 nM | 1300 nM | −27.3% | 12.3% | – | – | – | –
6 | Cc1ccc(-n2nc(C3(C)CCCCC3)cc2NC(=O)Nc2ccc(Oc3ccnc(NC(=O)N4CCCC4)c3)c(Cl)c2Cl)cc1 [Example 74, N-(4-(2,3-dichloro-4-(3-(3-(1-methylcyclohexyl)-1-p-tolyl-1H-pyrazol-5-yl)ureido)phenoxy)pyridin-2-yl)pyrrolidine-1-carboxamide] | 328 nM | 744 nM | 11.5 nM | 0.5 nM | 2.7 nM | 4.6 nM | 1.2% | 5.5% | – | – | – | –
7 | CC(C)(C)c1cc(NC(=O)Nc2ccc(Oc3ccnc(NC(=O)N4CCCC4)c3)c(Cl)c2Cl)n(-c2ccc(CO)cc2)n1 [Example 77, N-(4-(4-(3-(3-tert-butyl-1-(4-hydroxymethylphenyl)-1H-pyrazol-5-yl)ureido)-2,3-dichlorophenoxy)pyridin-2-yl)pyrrolidine-1-carboxamide] | 18.4 nM | 24.3 nM | 0.4 nM | 0.2 nM | 0.4 nM | 2.5 nM | −8.8% | 53.3% | – | – | – | –
8 | COc1ccc(-n2nc(C(C)(C)C)cc2NC(=O)Nc2ccc(Oc3ccnc(NC(=O)NC4CC4)c3)c(C#N)c2Cl)cc1 [Example 78, 1-(3-tert-butyl-1-(4-methoxyphenyl)-1H-pyrazol-5-yl)-3-(2-chloro-3-cyano-4-(2-(3-cyclopropylureido)pyridin-4-yloxy)phenyl) urea] | 84.6 nM | 96.2 nM | 1.4 nM | 1.6 nM | 2.2 nM | 2.2 nM | 1.0% | 20.9% | – | – | – | –
9 | COc1ccc(-n2nc(C(C)(C)C)cc2NC(=O)Nc2ccc(Oc3ccnc(NC(=O)N4CCCC4)c3)c(C#N)c2Cl)cc1 [Example 79, N-(4-(4-(3-(3-tert-butyl-1-(4-methoxyphenyl)-1H-pyrazol-5-yl)ureido)-3-chloro-2-cyanophenoxy)pyridin-2-yl)pyrrolidine-1-carboxamide] | 32.3 nM | 36.6 nM | 0.5 nM | 0.4 nM | 6.6 nM | 1.3 nM | −13.9% | 23.2% | – | – | – | –
10 | COc1ccc(-n2nc(C(C)(C)C)cc2NC(=O)Nc2ccc(Oc3ccnc(NC(=O)N4CC[C@@H](N(C)C)C4)c3)c(Cl)c2Cl)cc1 [Example 81, (R)-N-(4-(4-(3-(3-tert-butyl-1-(4-methoxyphenyl)-1H-pyrazol-5-yl)ureido)-2,3-dichlorophenoxy)pyridin-2-yl)-3-(dimethylamino) pyrrolidine-1-carboxamide] | 7.7 nM | 58.5 nM | – | – | – | – | −8.7% | 33.3% | 1.1 nM | 0.8 nM | 4.9 nM | 14 nM
11 | COc1ccc(-n2nc(C(C)(C)C)cc2NC(=O)Nc2ccc(Oc3ccnc(NC(=O)N4CC[C@H](N(C)C)C4)c3)c(Cl)c2Cl)cc1 [Example 82, (S)-N-(4-(4-(3-(3-tert-butyl-1-(4-methoxyphenyl)-1H-pyrazol-5-yl)ureido)-2,3-dichlorophenoxy)pyridin-2-yl)-3-(dimethylamino) pyrrolidine-1-carboxamide] | 14.1 nM | 33.6 nM | 0.3 nM | 1.8 nM | 4.6 nM | 2.1 nM | −13.2% | 20.5% | – | – | – | –
12 | CN(C)[C@H]1CCN(C(=O)Nc2cc(Oc3ccc(NC(=O)Nc4cc(C(C)(C)C)nn4-c4ccc(CO)cc4)c(Cl)c3Cl)ccn2)C1 [Example 83, (S)-N-(4-(4-(3-(3-tert-butyl-1-(4-hydroxymethylphenyl)-1H-pyrazol-5-yl)ureido)-2,3-dichlorophenoxy)pyridin-2-yl)-3-(dimethyl-amino)pyrrolidine-1-carboxamide] | 6.7 nM | 19.8 nM | 0.7 nM | 1.7 nM | 34 nM | 2.4 nM | −9.9% | 34.3% | – | – | – | –

From patent US10000471B2, “Pyrazole P38 map kinase inhibitors” (Respivert Limited, priority 2010, dated 2018)
